Non-standard residues stand in square brackets, D forms with d. Residues, ends and D or L forms follow the SMILES beside them. Cya = N[C@@H](CS(=O)(=O)O)C(=O)O; pGlu = O=C1CC[C@@H](C(=O)O)N1

For one assay, the system named is mAb 1H11. As to the kind of experiment: OSTEOMARK competitive immunoassay testing apparent affinity of synthetic peptides for mAb 1H11. The class given is binding. The note with it: nanomoles Bone Collagen Equivalents equivalent to 1 μg peptide; back fit into OSTEOMARK standard curve; values between 0.5 and 1 OD averaged. From the text: Generally, a milligram per mL solution of the peptide was made in PBS. The absorbence at A280 was read and the concentration confirmed. Dilutions of the peptide were then made in a buffer such as OSTEOMARK (TM) calibrator diluent (OSTEOMARK Assay, Ostex International, Seattle, Wash.). Working strength concentrations were between 10 and 0.01 micrograms per milliliter.
To test the apparent affinity of the synthetic peptides for mAb 1H11, the OSTEOMARK assay was run using OSTEOMARK kits and components, including monoclonal antibody 1H11. A standard curve was run using OSTEOMARK calibrators. Peptide samples were generally tested at 10, 3, 1, and down to 0.01 μG per mL. The standard OSTEOMARK curve was generated using a four parameter logistic curve fit program (MedData Inc., N.Y., N.Y.). Peptide values were back fit into the standard curve and values were reported in picomoles Bone Collagen Equivalents (BCE)/mL (which equals nanomolar BCE, or nM BCE).
Values in the Table are reported as the number of nanomoles of BCE equivalent to a microgram of a given peptide. Antibody binding values below 500 nMole BCE were considered to be commercially insignificant.
Consider `CC(C)[C@H](NC(=O)CNC(=O)[C@H](C)NC(=O)CNC(=O)[C@H](CC(=O)O)NC(=O)[C@H](Cc1ccc(O)cc1)NC(=O)[C@@H]1CCC(=O)N1)C(=O)NCC(=O)O` [SEQ ID NO:1, J Y D G A G V G] ([pGlu]YDGAGVG-OH), for which the “Results: peptide binding to mAb 1H11, 1 μg synthetic peptide = X nmole BCE” value (“Results: peptide binding to mAb 1H11” for short) was 483 nmole BCE. With `CC(C)[C@H](NC(=O)CNC(=O)[C@H](CCC(=O)O)NC(=O)CNC(=O)[C@H](CC(=O)O)NC(=O)[C@H](Cc1ccc(O)cc1)NC(=O)[C@@H]1CCC(=O)N1)C(=O)NCC(=O)O` [SEQ ID NO:4, J Y D G E G V G] ([pGlu]YDGEGVG-OH), the “Results: peptide binding to mAb 1H11” value was 2400 nmole BCE.

On to `CC(C)[C@H](NC(=O)CNC(=O)[C@H](Cc1ccccc1)NC(=O)CNC(=O)[C@H](CC(=O)O)NC(=O)[C@H](Cc1ccc(O)cc1)NC(=O)[C@@H]1CCC(=O)N1)C(=O)NCC(=O)O` [SEQ ID NO:5, J Y D G F G V G] ([pGlu]YDGFGVG-OH), for which the “Results: peptide binding to mAb 1H11” value was 365 nmole BCE. For the molecule `CC(C)[C@H](NC(=O)CNC(=O)CNC(=O)CNC(=O)[C@H](CC(=O)O)NC(=O)[C@H](Cc1ccc(O)cc1)NC(=O)[C@@H]1CCC(=O)N1)C(=O)NCC(=O)O` [SEQ ID NO:6, J Y D G G G V G] ([pGlu]YDGGGVG-OH), the “Results: peptide binding to mAb 1H11” value worked out at 114 nmole BCE. `CC(C)[C@H](NC(=O)CNC(=O)[C@H](Cc1c[nH]cn1)NC(=O)CNC(=O)[C@H](CC(=O)O)NC(=O)[C@H](Cc1ccc(O)cc1)NC(=O)[C@@H]1CCC(=O)N1)C(=O)NCC(=O)O` [SEQ ID NO:7, J Y D G H G V G] ([pGlu]YDGHGVG-OH): the “Results: peptide binding to mAb 1H11” value turned out to be 650 nmole BCE. On the same count and under the same terms, with `CC[C@H](C)[C@H](NC(=O)CNC(=O)[C@H](CC(=O)O)NC(=O)[C@H](Cc1ccc(O)cc1)NC(=O)[C@@H]1CCC(=O)N1)C(=O)NCC(=O)N[C@H](C(=O)NCC(=O)O)C(C)C` [SEQ ID NO:8, J Y D G I G V G] ([pGlu]YDGIGVG-OH) the figure was 250 nmole BCE. Consider `CC(C)C[C@H](NC(=O)CNC(=O)[C@H](CC(=O)O)NC(=O)[C@H](Cc1ccc(O)cc1)NC(=O)[C@@H]1CCC(=O)N1)C(=O)NCC(=O)N[C@H](C(=O)NCC(=O)O)C(C)C` [SEQ ID NO:10, J Y D G L G V G] ([pGlu]YDGLGVG-OH), for which the “Results: peptide binding to mAb 1H11” value is 230 nmole BCE.

With `CSCC[C@H](NC(=O)CNC(=O)[C@H](CC(=O)O)NC(=O)[C@H](Cc1ccc(O)cc1)NC(=O)[C@@H]1CCC(=O)N1)C(=O)NCC(=O)N[C@H](C(=O)NCC(=O)O)C(C)C` [SEQ ID NO:11, J Y D G M G V G] ([pGlu]YDGMGVG-OH), the “Results: peptide binding to mAb 1H11” value came to 183 nmole BCE.

On to `CC(C)[C@H](NC(=O)CNC(=O)[C@H](CC(N)=O)NC(=O)CNC(=O)[C@H](CC(=O)O)NC(=O)[C@H](Cc1ccc(O)cc1)NC(=O)[C@@H]1CCC(=O)N1)C(=O)NCC(=O)O` [SEQ ID NO:12, J Y D G N G V G] ([pGlu]YDGNGVG-OH), for which the “Results: peptide binding to mAb 1H11” value stood at 135 nmole BCE.

Regarding `CC(C)[C@H](NC(=O)CNC(=O)[C@@H]1CCCN1C(=O)CNC(=O)[C@H](CC(=O)O)NC(=O)[C@H](Cc1ccc(O)cc1)NC(=O)[C@@H]1CCC(=O)N1)C(=O)NCC(=O)O` [SEQ ID NO:13, J Y D G P G V G] ([pGlu]YDGPGVG-OH), the “Results: peptide binding to mAb 1H11” value is given as 2056 nmole BCE. Still for that read-out and setting: with `CC(C)[C@H](NC(=O)CNC(=O)[C@H](CCC(N)=O)NC(=O)CNC(=O)[C@H](CC(=O)O)NC(=O)[C@H](Cc1ccc(O)cc1)NC(=O)[C@@H]1CCC(=O)N1)C(=O)NCC(=O)O` [SEQ ID NO:14, J Y D G Q G V G] ([pGlu]YDGQGVG-OH) the figure was 148 nmole BCE. Same read-out and setting: the result for `CC(C)[C@H](NC(=O)CNC(=O)[C@H](CCCNC(=N)N)NC(=O)CNC(=O)[C@H](CC(=O)O)NC(=O)[C@H](Cc1ccc(O)cc1)NC(=O)[C@@H]1CCC(=O)N1)C(=O)NCC(=O)O` [SEQ ID NO:15, J Y D G R G V G] ([pGlu]YDGRGVG-OH) reads 23 nmole BCE. With `CC(C)[C@H](NC(=O)CNC(=O)[C@H](CO)NC(=O)CNC(=O)[C@H](CC(=O)O)NC(=O)[C@H](Cc1ccc(O)cc1)NC(=O)[C@@H]1CCC(=O)N1)C(=O)NCC(=O)O` [SEQ ID NO:16, J Y D G S G V G] ([pGlu]YDGSGVG-OH), the “Results: peptide binding to mAb 1H11” value is reported as 30 nmole BCE. Take `CC(C)[C@H](NC(=O)CNC(=O)[C@@H](NC(=O)CNC(=O)[C@H](CC(=O)O)NC(=O)[C@H](Cc1ccc(O)cc1)NC(=O)[C@@H]1CCC(=O)N1)[C@@H](C)O)C(=O)NCC(=O)O` [SEQ ID NO:17, J Y D G T G V G] ([pGlu]YDGTGVG-OH): the “Results: peptide binding to mAb 1H11” value is on record as 252 nmole BCE. In the case of `CC(C)[C@H](NC(=O)CNC(=O)[C@H](CC(=O)O)NC(=O)[C@H](Cc1ccc(O)cc1)NC(=O)[C@@H]1CCC(=O)N1)C(=O)NCC(=O)N[C@H](C(=O)NCC(=O)O)C(C)C` [SEQ ID NO:18, J Y D G V G V G] ([pGlu]YDGVGVG-OH), the “Results: peptide binding to mAb 1H11” value is 400 nmole BCE. Consider `CC(C)[C@H](NC(=O)CNC(=O)[C@H](Cc1c[nH]c2ccccc12)NC(=O)CNC(=O)[C@H](CC(=O)O)NC(=O)[C@H](Cc1ccc(O)cc1)NC(=O)[C@@H]1CCC(=O)N1)C(=O)NCC(=O)O` [SEQ ID NO:19, J Y D G W G V G] ([pGlu]YDGWGVG-OH), for which the “Results: peptide binding to mAb 1H11” value was determined as 1300 nmole BCE. The same measure, in the same setting: with `CC(C)[C@H](NC(=O)CNC(=O)[C@H](Cc1ccc(O)cc1)NC(=O)CNC(=O)[C@H](CC(=O)O)NC(=O)[C@H](Cc1ccc(O)cc1)NC(=O)[C@@H]1CCC(=O)N1)C(=O)NCC(=O)O` [SEQ ID NO:20, J Y D G Y G V G] ([pGlu]YDGYGVG-OH) the figure was 104 nmole BCE; with `CC(C)[C@H](NC(=O)CNC(=O)[C@H](CS(=O)(=O)O)NC(=O)CNC(=O)[C@H](CC(=O)O)NC(=O)[C@H](Cc1ccc(O)cc1)NC(=O)[C@@H]1CCC(=O)N1)C(=O)NCC(=O)O` [SEQ ID NO:26, j Y D G X^2 G V G] ([pGlu]YDG[Cya]GVG-OH), 1000 nmole BCE.

Staying with this assay, now noted: nanomoles Bone Collagen Equivalents equivalent to 1 μg peptide; back fit into OSTEOMARK standard curve; values between 0.5 and 1 OD averaged; listed as 3.
For the molecule `CC(C)[C@H](NC(=O)CNC(=O)[C@H](CC(=O)O)NC(=O)CNC(=O)[C@H](CC(=O)O)NC(=O)[C@H](Cc1ccc(O)cc1)NC(=O)[C@@H]1CCC(=O)N1)C(=O)NCC(=O)O` [SEQ ID NO:3, J Y D G D G V G] ([pGlu]YDGDGVG-OH), the “Results: peptide binding to mAb 1H11” value is 1840 nmole BCE.

The same assay, now with this note: synthetic peptide, antibody inhibition assay.
`CC(C)[C@H](NC(=O)CNC(=O)[C@H](CCC(=O)O)NC(=O)CNC(=O)[C@H](CC(=O)O)NC(=O)[C@H](Cc1ccc(O)cc1)NC(=O)[C@@H](N)CCC(=O)O)C(=O)NCC(=O)O` [EYDGEGVG] (H-EYDGEGVG-OH): the “binding to mAb 1H11 (in words)” value was “not recognized”.

As for `CC(C)[C@H](NC(=O)CNC(=O)[C@H](CCC(=O)O)NC(=O)CNC(=O)[C@H](CC(=O)O)NC(=O)[C@H](Cc1ccc(O)cc1)NC(=O)[C@@H]1CCC(=O)N1)C(=O)NCC(=O)O` [SEQ ID NO:4, J Y D G E G V G] ([pGlu]YDGEGVG-OH), the “binding to mAb 1H11 (in words)” value is on record as “Improved binding”. For `CC(C)[C@H](NC(=O)CNC(=O)[C@H](Cc1c[nH]cn1)NC(=O)CNC(=O)[C@H](CC(=O)O)NC(=O)[C@H](Cc1ccc(O)cc1)NC(=O)[C@@H]1CCC(=O)N1)C(=O)NCC(=O)O` [SEQ ID NO:7, J Y D G H G V G] ([pGlu]YDGHGVG-OH), the “binding to mAb 1H11 (in words)” value is reported as “more limited degree of 1H11 binding”.

Staying with this assay, now noted: synthetic peptide, antibody inhibition assay; listed as Gln-Tyr-Asp-Gly-Glu-Gly-Val-Gly.
As for `CC(C)[C@H](NC(=O)CNC(=O)[C@H](CCC(=O)O)NC(=O)CNC(=O)[C@H](CC(=O)O)NC(=O)[C@H](Cc1ccc(O)cc1)NC(=O)[C@@H]1CCC(=O)N1)C(=O)NCC(=O)O` [SEQ ID NO:4, J Y D G E G V G] ([pGlu]YDGEGVG-OH), the “binding to mAb 1H11 (in words)” value is reported as “comparable to that of the cross-linked NTx antigen”.

The values are drawn from US5817755A, “Synthetic peptide analogs of cross-linked N-telopeptides of type I collagen” (Washington Research Foundation, priority 1997, dated 1998).
